From the supplement of paper PMC12350171

Experiments:
Parabacteroides merdae = assay: IC25 growth inhibition; higher = less potent
Procedure, shortened: (§1)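 Under anaerobic conditions, OD578 was read hourly in a plate reader for at least three biological replicates of monocultures grown overnight in mGAM. Each culture started at an OD578 of 0.01 in pre-reduced plates holding twofold drug dilutions and 1% DMSO (or water). IC25 was reported as a tested interval: the lowest concentration where the monotonic median area under the growth curve dropped below the cutoff. That cutoff was 0.75.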

Clostridium perfringens = assay: IC25 growth inhibition; higher = less potent
Procedure, shortened: as §1

[1] = tested on: Salmonella enterica typhimurium; assay: IC25 growth inhibition; higher = less potent
Procedure, shortened: as §1

Bacteroides uniformis = assay: IC25 growth inhibition; higher = less potent
Procedure, shortened: as §1

Bacteroides vulgatus = assay: IC25 growth inhibition; higher = less potent
Procedure, shortened: as §1

Dorea formicigenerans = assay: IC25 growth inhibition; higher = less potent
Procedure, shortened: as §1

Vibrio cholerae = assay: IC25 growth inhibition; higher = less potent
Procedure, shortened: as §1

Eubacterium rectale = assay: IC25 growth inhibition; higher = less potent
Procedure, shortened: as §1

Collinsella aerofaciens = assay: IC25 growth inhibition; higher = less potent
Procedure, shortened: as §1

Ruminococcus gnavus = assay: IC25 growth inhibition; higher = less potent
Procedure, shortened: as §1

[2] = tested on: Streptococcus parasanguinis; assay: IC25 growth inhibition; higher = less potent
Procedure, shortened: as §1

[3] = tested on: Yersinia pseudotuberculosis; assay: IC25 growth inhibition; higher = less potent
Procedure, shortened: as §1

[4] = tested on: Yersinia enterocolitica WA-314; assay: IC25 growth inhibition; higher = less potent
Procedure, shortened: as §1

[5] = tested on: Fusobacterium nucleatum subsp. Nucleatum; assay: IC25 growth inhibition; higher = less potent
Procedure, shortened: as §1

Bacteroides fragilis NT = assay: IC25 growth inhibition; higher = less potent
Procedure, shortened: as §1

[6] = tested on: Bacteroides thetaiotaomicron; assay: IC25 growth inhibition; higher = less potent
Procedure, shortened: as §1

Clostridium bolteae = assay: IC25 growth inhibition; higher = less potent
Procedure, shortened: as §1

Shigella flexneri = assay: IC25 growth inhibition; higher = less potent
Procedure, shortened: as §1

Roseburia intestinalis = assay: IC25 growth inhibition; higher = less potent
Procedure, shortened: as §1

Streptococcus salivarius = assay: IC25 growth inhibition; higher = less potent
Procedure, shortened: as §1

Coprococcus comes = assay: IC25 growth inhibition; higher = less potent
Procedure, shortened: as §1

[7] = tested on: Clostridium saccharolyticum; assay: IC25 growth inhibition; higher = less potent
Procedure, shortened: as §1

Clostridium ramosum = assay: IC25 growth inhibition; higher = less potent
Procedure, shortened: as §1

Escherichia coli ED1a = assay: IC25 growth inhibition; higher = less potent
Procedure, shortened: as §1

[8] = tested on: Com21 synthetic gut community; assay: community biomass OD578 after 24 h drug treatment relative to untreated (fraction of untreated control); higher = more community growth; conditions: community: Com21 (Com20 + E. coli ED1a)
Description: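 Com21 (Com20 plus E. coli ED1a) was treated with drug for 24 h under anaerobic conditions in mGAM. Community OD578 was then measured and normalised to untreated Com21; mean of 3 biological replicates.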

[9] = drug pretreatment concentration 20 µM
[10] = drug pretreatment concentration 40 µM
[11] = drug pretreatment concentration 80 µM
[12] = drug pretreatment concentration 160 µM
[13] = drug pretreatment concentration 10 µM
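Wherever IC25 growth inhibition is given: lowest concentration where monotonic median growth AUC falls below 0.75 of drug-free control.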

SMILES | IC25 growth inhibition (Parabacteroides merdae) | IC25 growth inhibition (Clostridium perfringens) | IC25 growth inhibition [1] | IC25 growth inhibition (Bacteroides uniformis) | IC25 growth inhibition (Bacteroides vulgatus) | IC25 growth inhibition (Dorea formicigenerans) | IC25 growth inhibition (Vibrio cholerae) | IC25 growth inhibition (Eubacterium rectale) | IC25 growth inhibition (Collinsella aerofaciens) | IC25 growth inhibition (Ruminococcus gnavus) | IC25 growth inhibition [2] | IC25 growth inhibition [3] | IC25 growth inhibition [4] | IC25 growth inhibition [5] | IC25 growth inhibition (Bacteroides fragilis NT) | IC25 growth inhibition [6] | IC25 growth inhibition (Clostridium bolteae) | IC25 growth inhibition (Shigella flexneri) | IC25 growth inhibition (Roseburia intestinalis) | IC25 growth inhibition (Streptococcus salivarius) | IC25 growth inhibition (Coprococcus comes) | IC25 growth inhibition [7] | IC25 growth inhibition (Clostridium ramosum) | IC25 growth inhibition (Escherichia coli ED1a) | community biomass OD578 [8, 9] | community biomass OD578 [8, 10] | community biomass OD578 [8, 11] | community biomass OD578 [8, 12] | community biomass OD578 [8, 13] | community biomass OD578 ([8]; drug pretreatment concentration 2.5 µM) | community biomass OD578 ([8]; drug pretreatment concentration 5 µM)
CCC(C)(C)C(=O)O[C@H]1C[C@@H](C)C=C2C=C[C@H](C)[C@H](CC[C@@H]3C[C@@H](O)CC(=O)O3)[C@H]21 [Simvastatin] | ≤ 40 µM | ≤ 40 µM | > 80 µM | ≤ 40 µM | ≤ 20 µM | ≤ 80 µM | > 80 µM | ≤ 20 µM | ≤ 80 µM | ≤ 40 µM | ≤ 80 µM | > 80 µM | > 80 µM | > 80 µM | ≤ 40 µM | ≤ 40 µM | > 80 µM | > 80 µM | ≤ 20 µM | ≤ 20 µM | > 80 µM | ≤ 80 µM | ≤ 40 µM | > 160 µM | 0.99 | 0.946 | 0.844 | 0.687 |  |  | 
CN(N=O)C(=O)N[C@@H](C=O)[C@@H](O)[C@H](O)[C@H](O)CO [Streptozotocin] | ≤ 20 µM | > 160 µM | ≤ 10 µM | ≤ 40 µM | ≤ 20 µM | > 160 µM | ≤ 2.5 µM | > 160 µM | ≤ 10 µM | < 1.25 µM | ≤ 20 µM | ≤ 2.5 µM | ≤ 2.5 µM | < 1.25 µM | ≤ 20 µM | ≤ 40 µM | ≤ 2.5 µM | ≤ 2.5 µM | < 1.25 µM | > 160 µM | ≤ 2.5 µM | < 1.25 µM | < 1.25 µM | ≤ 2.5 µM | 0.921 | 0.872 | 0.859 | 0.889 | 0.909 |  | 
CC/C(=C(\c1ccccc1)c1ccc(OCCN(C)C)cc1)c1ccccc1 [Tamoxifen] | > 40 µM | > 40 µM | > 40 µM | ≤ 40 µM | > 40 µM | ≤ 20 µM | > 40 µM | ≤ 5 µM | ≤ 40 µM | ≤ 40 µM | > 40 µM | > 40 µM | > 40 µM | > 40 µM | > 40 µM | ≤ 40 µM | > 40 µM | > 40 µM | ≤ 20 µM | > 40 µM | > 40 µM | > 40 µM | > 40 µM | > 40 µM | 0.977 | 0.719 |  |  | 1 | 1 | 1.01
C[C@]1(Cn2ccnn2)[C@H](C(=O)O)N2C(=O)C[C@H]2S1(=O)=O [Tazobactam] | ≤ 10 µM | ≤ 80 µM | ≤ 160 µM | ≤ 5 µM | ≤ 10 µM | ≤ 20 µM | > 160 µM | ≤ 5 µM | ≤ 160 µM | ≤ 160 µM | ≤ 40 µM | > 160 µM | > 160 µM | ≤ 20 µM | ≤ 10 µM | ≤ 20 µM | > 160 µM | ≤ 160 µM | ≤ 40 µM | ≤ 160 µM | ≤ 80 µM | ≤ 80 µM | > 160 µM | ≤ 160 µM | 0.79 | 0.716 | 0.733 | 0.722 | 0.834 |  | 
